Results: the supplement of paper PMC11208160
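Further: IS621 recombinase and bridge RNA in Escherichia coli cells.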

Test: recombinant barcode read abundance after kanamycin selection (control-corrected) (log10(CPM+1)); higher = more efficient recombination; sequences stand for … in AGTGCAGAGAAAATCGGCCAGTTTTCTCTGCCTGCAGTCCGCATGCCGT…AGATTTATGCAGCGGACTGCCTTTCTCCCAAAGTGATAAACCGGACAGTATCATGGACCGGTTTTCCCGGTAATCCGTATTTGCAAGGTTGGTTTCACT; site = the 11-nt target
Method in brief: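 Pooled oligos, each joining a target to an IS621 bridge RNA target-binding loop, were cloned and co-electroporated with a donor plasmid into E. coli. Selective plates carried chloramphenicol/ampicillin/kanamycin and 0.1 mM IPTG, while chloramphenicol/ampicillin LB agar served as control, with two replicates of each. Recombination efficiency rests on averaged, control-corrected counts per million of barcodes at recombinant junctions, shown as log10(CPM+1).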
For “TACTCTTCTTGGGTTCTAACCTGTTGCCT (site GGTCAACCTCC)”, the “recombinant barcode read abundance (log10)” value was 0.0368.
With “TACTCTTCTTGGGTTCTAACCTGTTGCCT (site TACTCTTCTAG)” the “recombinant barcode read abundance (log10)” value was 0.279.
In the case of “TACTGAACTTGGGTTCTAACCTGTTGCCT (site TACTAAACTAG)”, the “recombinant barcode read abundance (log10)” value is reported as 0.0356.
With “TACTGAACTTGGGTTCTAACCTGTTGCCT (site TACTCAACTAG)” the “recombinant barcode read abundance (log10)” value was 0.104.
With “TACTGAACTTGGGTTCTAACCTGTTGCCT (site TACTGAACTAG)” the “recombinant barcode read abundance (log10)” value was 0.159.
With “TACTGAACTTGGGTTCTAACCTGTTGCCT (site TACTTAACTAG)” the “recombinant barcode read abundance (log10)” value was 0.305.
In the case of “TACTGGGCTTGGGTTCTAACCTGTTGCTG (site TACTGGGCTCA)”, the “recombinant barcode read abundance (log10)” value is reported as 0.684.
In the case of “TACTGGGCTTGGGTTCTAACCTGTTGCTG (site TACTGGGCTCC)”, the “recombinant barcode read abundance (log10)” value is reported as 0.0895.
With “TAGAACACTTGGGTTCTAACCTGTTGCCT (site AAGAACACTAG)” the “recombinant barcode read abundance (log10)” value was 0.0955.
In the case of “TAGAACACTTGGGTTCTAACCTGTTGCCT (site CAGAACACTAG)”, the “recombinant barcode read abundance (log10)” value is reported as 0.256.
For “TAGAACACTTGGGTTCTAACCTGTTGCCT (site GAGAACACTAG)”, the “recombinant barcode read abundance (log10)” value was 0.108.
With “TAGAACACTTGGGTTCTAACCTGTTGCCT (site TAGAACACTAG)” the “recombinant barcode read abundance (log10)” value was 0.992.
In the case of “TAGAACACTTGGGTTCTAACCTGTTGCTA (site TAGAACACTAA)”, the “recombinant barcode read abundance (log10)” value is reported as 0.237.
In the case of “TAGAACACTTGGGTTCTAACCTGTTGCTA (site TAGAACACTCA)”, the “recombinant barcode read abundance (log10)” value is reported as 0.109.
In the case of “TAGAACACTTGGGTTCTAACCTGTTGCTA (site TAGAACACTGA)”, the “recombinant barcode read abundance (log10)” value is reported as 0.71.
For “TAGAACACTTGGGTTCTAACCTGTTGCTA (site TAGAACACTTA)”, the “recombinant barcode read abundance (log10)” value was 0.807.
For “TAGAACACTTGGGTTCTAACCTGTTGCTG (site TAGAACACTAA)”, the “recombinant barcode read abundance (log10)” value was 0.106.
For “TAGAACACTTGGGTTCTAACCTGTTGCTG (site TAGAACACTCA)”, the “recombinant barcode read abundance (log10)” value was 1.
In the case of “TAGAACACTTGGGTTCTAACCTGTTGCTG (site TAGAACACTGA)”, the “recombinant barcode read abundance (log10)” value is reported as 0.132.
For “TAGAACACTTGGGTTCTAACCTGTTGCTG (site TAGAACACTTA)”, the “recombinant barcode read abundance (log10)” value was 0.0894.
With “TAGAACTCTTGGGTTCTAACCTGTTGCCG (site TAGAACTCTAG)” the “recombinant barcode read abundance (log10)” value was 0.242.
For “TAGAACTCTTGGGTTCTAACCTGTTGCCG (site TAGAACTCTCG)”, the “recombinant barcode read abundance (log10)” value was 0.591.
For “TAGAACTCTTGGGTTCTAACCTGTTGCCG (site TAGAACTCTGG)”, the “recombinant barcode read abundance (log10)” value was 0.0844.
In the case of “TAGAACTCTTGGGTTCTAACCTGTTGCCG (site TAGAACTCTTG)”, the “recombinant barcode read abundance (log10)” value is reported as 0.127.
In the case of “TAGAAGACTTGGGTTCTAACCTGTTGCTT (site TAGAAGACTAA)”, the “recombinant barcode read abundance (log10)” value is reported as 0.37.
For “TAGAAGACTTGGGTTCTAACCTGTTGCTT (site TAGAAGACTCA)”, the “recombinant barcode read abundance (log10)” value was 0.282.
With “TAGAAGACTTGGGTTCTAACCTGTTGCTT (site TAGAAGACTGA)” the “recombinant barcode read abundance (log10)” value was 0.0968.
In the case of “TAGAAGACTTGGGTTCTAACCTGTTGCTT (site TAGAAGACTTA)”, the “recombinant barcode read abundance (log10)” value is reported as 0.399.
With “TAGAAGGCTTGGGTTCTAACCTGTTGCTA (site TAGAAGCCTTA)” the “recombinant barcode read abundance (log10)” value was 0.0194.
In the case of “TAGAAGGCTTGGGTTCTAACCTGTTGCTA (site TAGAAGGCTTA)”, the “recombinant barcode read abundance (log10)” value is reported as 1.15.
With “TAGAAGTCTTGGGTTCTAACCTGTTGCTG (site AAGATGTCTCA)” the “recombinant barcode read abundance (log10)” value was 0.122.
In the case of “TAGAAGTCTTGGGTTCTAACCTGTTGCTG (site TAGAAGTCTCA)”, the “recombinant barcode read abundance (log10)” value is reported as 1.46.
For “TAGAATACTTGGGTTCTAACCTGTTGCGG (site TAGAATACTCC)”, the “recombinant barcode read abundance (log10)” value was 1.06.
With “TAGAATACTTGGGTTCTAACCTGTTGCGG (site TATAATACTCC)” the “recombinant barcode read abundance (log10)” value was 0.0627.
For “TAGAATCCTTGGGTTCTAACCTGTTGCAC (site TAGAATCCTAT)”, the “recombinant barcode read abundance (log10)” value was 0.117.
For “TAGAATCCTTGGGTTCTAACCTGTTGCAC (site TAGAATCCTCT)”, the “recombinant barcode read abundance (log10)” value was 0.152.
In the case of “TAGAATCCTTGGGTTCTAACCTGTTGCAC (site TAGAATCCTGT)”, the “recombinant barcode read abundance (log10)” value is reported as 0.152.
With “TAGAATCCTTGGGTTCTAACCTGTTGCAC (site TAGAATCCTTT)” the “recombinant barcode read abundance (log10)” value was 0.103.
With “TAGACAGCTTGGGTTCTAACCTGTTGCCT (site TAAACAGCTAG)” the “recombinant barcode read abundance (log10)” value was 0.143.
With “TAGACAGCTTGGGTTCTAACCTGTTGCCT (site TACACAGCTAG)” the “recombinant barcode read abundance (log10)” value was 0.122.
In the case of “TAGACAGCTTGGGTTCTAACCTGTTGCCT (site TAGACAGCTAG)”, the “recombinant barcode read abundance (log10)” value is reported as 0.416.
For “TAGACAGCTTGGGTTCTAACCTGTTGCCT (site TATACAGCTAG)”, the “recombinant barcode read abundance (log10)” value was 0.0229.
For “TAGACGACTTGGGTTCTAACCTGTTGCAC (site TAGACGACTGT)”, the “recombinant barcode read abundance (log10)” value was 1.57.
With “TAGACGACTTGGGTTCTAACCTGTTGCAC (site TAGCCGTCTGT)” the “recombinant barcode read abundance (log10)” value was 0.173.
With “TAGACGACTTGGGTTCTAACCTGTTGCTT (site TAGACGACTAA)” the “recombinant barcode read abundance (log10)” value was 0.829.
In the case of “TAGACGACTTGGGTTCTAACCTGTTGCTT (site TAGCCGACTAA)”, the “recombinant barcode read abundance (log10)” value is reported as 0.0758.
With “TAGACGACTTGGGTTCTAACCTGTTGCTT (site TAGGCGACTAA)” the “recombinant barcode read abundance (log10)” value was 0.0736.
In the case of “TAGACGACTTGGGTTCTAACCTGTTGCTT (site TAGTCGACTAA)”, the “recombinant barcode read abundance (log10)” value is reported as 0.086.
With “TAGACTACTTGGGTTCTAACCTGTTGCCT (site CAGACTCCTAG)” the “recombinant barcode read abundance (log10)” value was 0.055.
For “TAGACTACTTGGGTTCTAACCTGTTGCCT (site TAGACTACTAG)”, the “recombinant barcode read abundance (log10)” value was 0.521.
With “TAGACTACTTGGGTTCTAACCTGTTGCTC (site TAGACTACTAA)” the “recombinant barcode read abundance (log10)” value was 0.
In the case of “TAGACTACTTGGGTTCTAACCTGTTGCTC (site TAGACTACTCA)”, the “recombinant barcode read abundance (log10)” value is reported as 0.082.
With “TAGACTACTTGGGTTCTAACCTGTTGCTC (site TAGACTACTGA)” the “recombinant barcode read abundance (log10)” value was 0.123.
With “TAGACTACTTGGGTTCTAACCTGTTGCTC (site TAGACTACTTA)” the “recombinant barcode read abundance (log10)” value was 0.0392.
In the case of “TAGACTACTTGGGTTCTAACCTGTTGCTG (site TAGACTACTAA)”, the “recombinant barcode read abundance (log10)” value is reported as 0.0928.
For “TAGACTACTTGGGTTCTAACCTGTTGCTG (site TAGACTACTCA)”, the “recombinant barcode read abundance (log10)” value was 0.609.
For “TAGACTACTTGGGTTCTAACCTGTTGCTG (site TAGACTACTGA)”, the “recombinant barcode read abundance (log10)” value was 0.215.
For “TAGACTACTTGGGTTCTAACCTGTTGCTG (site TAGACTACTTA)”, the “recombinant barcode read abundance (log10)” value was 0.0595.
With “TAGAGCACTTGGGTTCTAACCTGTTGCCT (site AAGAGCACTAG)” the “recombinant barcode read abundance (log10)” value was 0.057.
With “TAGAGCACTTGGGTTCTAACCTGTTGCCT (site CAGAGCACTAG)” the “recombinant barcode read abundance (log10)” value was 0.114.
For “TAGAGCACTTGGGTTCTAACCTGTTGCCT (site GAGAGCACTAG)”, the “recombinant barcode read abundance (log10)” value was 0.0873.
With “TAGAGCACTTGGGTTCTAACCTGTTGCCT (site TAGAGCACTAG)” the “recombinant barcode read abundance (log10)” value was 0.644.
With “TAGATCACTTGGGTTCTAACCTGTTGCAT (site TAGATCACTAT)” the “recombinant barcode read abundance (log10)” value was 0.629.
With “TAGATCACTTGGGTTCTAACCTGTTGCAT (site TAGCTCACTAT)” the “recombinant barcode read abundance (log10)” value was 0.408.
In the case of “TAGATCACTTGGGTTCTAACCTGTTGCAT (site TAGGTCACTAT)”, the “recombinant barcode read abundance (log10)” value is reported as 0.0386.
In the case of “TAGATCACTTGGGTTCTAACCTGTTGCAT (site TAGTTCACTAT)”, the “recombinant barcode read abundance (log10)” value is reported as 0.0464.
In the case of “TAGATTACTTGGGTTCTAACCTGTTGCCT (site TAAAATACTAG)”, the “recombinant barcode read abundance (log10)” value is reported as 0.12.
With “TAGATTACTTGGGTTCTAACCTGTTGCCT (site TAGATTACTAG)” the “recombinant barcode read abundance (log10)” value was 0.178.
With “TAGATTCCTTGGGTTCTAACCTGTTGCAA (site CGACAGTCTAG)” the “recombinant barcode read abundance (log10)” value was 0.102.
In the case of “TAGATTCCTTGGGTTCTAACCTGTTGCAA (site TAGATTCCTTT)”, the “recombinant barcode read abundance (log10)” value is reported as 0.0712.
With “TAGCACCCTTGGGTTCTAACCTGTTGCCA (site TAGCACCCTAG)” the “recombinant barcode read abundance (log10)” value was 0.394.
In the case of “TAGCACCCTTGGGTTCTAACCTGTTGCCA (site TAGCACCCTCG)”, the “recombinant barcode read abundance (log10)” value is reported as 0.218.
In the case of “TAGCACCCTTGGGTTCTAACCTGTTGCCA (site TAGCACCCTGG)”, the “recombinant barcode read abundance (log10)” value is reported as 0.156.
With “TAGCACCCTTGGGTTCTAACCTGTTGCCA (site TAGCACCCTTG)” the “recombinant barcode read abundance (log10)” value was 0.965.
For “TAGCACCCTTGGGTTCTAACCTGTTGCCT (site TAGCACCCTAG)”, the “recombinant barcode read abundance (log10)” value was 1.79.
With “TAGCACCCTTGGGTTCTAACCTGTTGCCT (site TAGCACCCTCG)” the “recombinant barcode read abundance (log10)” value was 0.0128.
For “TAGCACCCTTGGGTTCTAACCTGTTGCCT (site TAGCACCCTGG)”, the “recombinant barcode read abundance (log10)” value was 0.671.
For “TAGCACCCTTGGGTTCTAACCTGTTGCCT (site TAGCACCCTTG)”, the “recombinant barcode read abundance (log10)” value was 0.144.
For “TAGCATACTTGGGTTCTAACCTGTTGCCT (site TAGCATACTAG)”, the “recombinant barcode read abundance (log10)” value was 1.37.
In the case of “TAGCATACTTGGGTTCTAACCTGTTGCCT (site TAGCATACTCG)”, the “recombinant barcode read abundance (log10)” value is reported as 0.112.
In the case of “TAGCATACTTGGGTTCTAACCTGTTGCCT (site TAGCATACTGG)”, the “recombinant barcode read abundance (log10)” value is reported as 0.308.
In the case of “TAGCATACTTGGGTTCTAACCTGTTGCCT (site TAGCATACTTG)”, the “recombinant barcode read abundance (log10)” value is reported as 0.0681.
For “TAGCCCACTTGGGTTCTAACCTGTTGCGG (site TAGCACACTCC)”, the “recombinant barcode read abundance (log10)” value was 0.0811.
With “TAGCCCACTTGGGTTCTAACCTGTTGCGG (site TAGCCCACTCC)” the “recombinant barcode read abundance (log10)” value was 1.35.
For “TAGCCCACTTGGGTTCTAACCTGTTGCGG (site TAGCGCACTCC)”, the “recombinant barcode read abundance (log10)” value was 0.0188.
For “TAGCCCACTTGGGTTCTAACCTGTTGCGG (site TAGCTCACTCC)”, the “recombinant barcode read abundance (log10)” value was 0.393.
